Experimental data published in US20050032888A1 (priority 2001, published 2005).

What was measured:
[1] = test system: skin of older probands; assay: Regular topical application of ascorbic acid to the skin of older probands (confocal microscopy in vivo)
Description: Status and changes of the microcapillary system and the rete peg pattern can be shown, followed, and quantified on probands quickly (in minutes) by means of modern techniques, such as confocal microscopy in vivo—i.e., free of injury, repeatedly as often as desired, and with dynamic responses to actual influences—both with respect to the density of the rete pegs or microcapillaries (number per surface unit) and with respect to their height, which makes it possible to estimate the size of the exchange surface.

[2] = cited from earlier work

For `O=C1O[C@H]([C@@H](O)CO)C(O)=C1O` [ascorbic acid], the “density of rete pegs and microcapillaries” value [1] was “reversibly increased to the extent of youthful skin”, the “elasticity parameters of the skin (formation of suction blisters)” value [1] was “improvement” and the “moisture content and roughness of the horny layer” value [1] was “improvement”. The stability to heat ([2]; heat) was “sensitive to heat”, the “stability in a pure, dry state” value ([2]; pure, dry state, light, air, heat) was “relatively resistant to light, air, and heat” and the “stability in the presence of traces of heavy metal and in an alkaline environment” value ([2]; traces of heavy metal, alkaline environment, air and atmospheric oxygen) was “decomposes”.
